Data on 14 molecules can be found in patent publication US20240368159A1, “HPK1 DEGRADERS, COMPOSITIONS COMPRISING THE HPK1 DEGRADER, AND METHODS OF USING THE SAME” (BIOFRONT LTD, priority 2021, published 2024).

Some results are limits rather than exact numbers.

Assay [1] concerns the target T1, HPK1 protein (Homo sapiens, UniProt Q92918).
T1 construct: Frozen human PBMC were purchased from Shanghai OribioTech; host or cells: human PBMC
Kind of assay: HPK1 protein degradation in human PBMC (western blot). Particulars: 18 h incubation. Format: cell-based. How it is done: HPK1 protein degradation in human PBMC: Frozen human PBMC were purchased from Shanghai OribioTech and recovered with culture medium (RMPI1640) prior to use. The cells were then incubated with a variety of concentrations of compound. After incubation for 18 h, the cells were collected and lysed. The protein concentration was determined by BCA protein assay kit from Thermo (23227). The HPK1 protein level was determined by western blots, using anti-human HPK1 polyclonal antibody from CST (4472S). Proteins were loaded into each well of the pre-casting gels and subjected to electrophoretic separation by SDS-PAGE. The protein resolved by SDS-PAGE were transferred to PVDF, blocked by 5% skim milk, and probed with anti-human HPK1 antibody or β-actin antibody from CST (3700S), using standard western blotting procedure.
T1 sequence (Q92918 whole entry): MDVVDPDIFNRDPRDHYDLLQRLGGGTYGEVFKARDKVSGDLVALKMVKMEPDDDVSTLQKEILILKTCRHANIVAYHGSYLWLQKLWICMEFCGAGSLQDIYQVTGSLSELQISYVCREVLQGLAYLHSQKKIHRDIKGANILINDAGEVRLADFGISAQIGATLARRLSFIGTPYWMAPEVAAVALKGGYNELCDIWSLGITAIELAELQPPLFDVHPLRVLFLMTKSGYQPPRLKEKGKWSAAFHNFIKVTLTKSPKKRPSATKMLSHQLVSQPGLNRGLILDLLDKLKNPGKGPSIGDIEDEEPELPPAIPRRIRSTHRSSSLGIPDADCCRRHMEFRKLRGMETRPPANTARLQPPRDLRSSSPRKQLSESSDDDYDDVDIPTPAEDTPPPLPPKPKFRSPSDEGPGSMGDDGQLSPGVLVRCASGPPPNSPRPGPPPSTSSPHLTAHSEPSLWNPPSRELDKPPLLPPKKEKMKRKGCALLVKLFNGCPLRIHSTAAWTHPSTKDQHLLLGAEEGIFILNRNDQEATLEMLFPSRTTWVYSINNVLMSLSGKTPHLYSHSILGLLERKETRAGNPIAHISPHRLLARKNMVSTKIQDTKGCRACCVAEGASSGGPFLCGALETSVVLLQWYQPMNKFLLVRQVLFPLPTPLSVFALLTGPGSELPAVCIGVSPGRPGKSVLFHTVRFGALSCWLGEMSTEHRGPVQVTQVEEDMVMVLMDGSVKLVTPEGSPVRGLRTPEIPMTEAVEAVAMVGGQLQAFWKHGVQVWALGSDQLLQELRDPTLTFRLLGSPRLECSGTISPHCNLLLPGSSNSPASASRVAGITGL
(In general: Immunoblotting shows a protein as a band on a membrane.)

The target of assay [2] is T2, HPK1 protein (Homo sapiens, UniProt Q92918).
T2 construct: purchased Signal Chem M23-11G-10
T2 sequence (Q92918 1-346 limits assumed): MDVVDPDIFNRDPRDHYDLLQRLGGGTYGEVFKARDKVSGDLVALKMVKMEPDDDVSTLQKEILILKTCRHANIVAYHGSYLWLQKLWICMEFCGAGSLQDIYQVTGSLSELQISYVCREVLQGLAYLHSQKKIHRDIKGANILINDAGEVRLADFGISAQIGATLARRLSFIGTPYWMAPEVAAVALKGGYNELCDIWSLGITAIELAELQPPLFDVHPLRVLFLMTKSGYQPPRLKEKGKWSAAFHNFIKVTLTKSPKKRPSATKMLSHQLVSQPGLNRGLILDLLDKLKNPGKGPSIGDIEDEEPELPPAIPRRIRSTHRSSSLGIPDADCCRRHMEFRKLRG
Kind of assay: HPK1 enzyme inhibition assay (ADP-Glo). Format: biochemical. The conditions noted are these: MBP substrate, ATP, ADP-Glo readout. An outline of the steps: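 Recombinant human HPK1 preincubated with compound 60 min at 25 °C, then reaction with MBP (0.2 ug/ul, 2× stock) and ATP (20 μM, 2× stock) 60 min at 25 °C. ADP formed detected by ADP-Glo after ATP depletion and conversion to ATP; IC50 calculated from signal.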

A further assay concerns HPK1 p-SLP-76. In words: HPK1 p-SLP-76 inhibition assay in human PBMC (HTRF). Format: cell-based. The conditions noted are these: 6 h compound, anti-CD3 stimulation 20 min. The protocol: Human PBMC were purchased from OriCells (FPB004F-C). Before compound treatment, PBMC were starved in PRMI-1640 medium supplemented with 0.5% FBS overnight. The cell density was adjusted to 1*10^7 cells/mL in assay medium (RPMI-1640 no phenol red with 0.5% FBS) and 16 μL cell suspension was transferred per well to a 384-well plate (Corning #3765). 6× solution of test compound was prepared in assay medium and 4 μL was added per well to the 384-well plate. The plate was then incubated at 37° C., 5% CO2 for 6 h. PBMC in 384-well plate were stimulated with anti-CD3 (BD Biosciences #555329, final conc. is 10 ug/mL) for 20 min at 37° C., 5% CO2 by adding 4 μL 6× antibody solution per well. Phospho-SLP76 HTRF kit was purchased from Cisbio (63ADK076PEH). 8 μL 4× Lysis Buffer was added to 384-well plate after anti-CD3 stimulation. The plate was centrifuged at 1,000 rpm for 1 min, shaken at 250 rpm for 60 min and centrifuged again at 1,000 rpm for 5 min. Afterwards the cell lysates were transferred to the assay plate (Greiner #784075) with 16 μL per well. 4 μL detection antibody mix per well prepared in Detection Buffer was added to the assay plate, followed by centrifugation at 1,000 rpm for 1 min and incubation at 25° C. overnight.
Background: TR-FRET usually uses a lanthanide donor and a delayed reading to cut background.

The target in assay [3] is T3, HPK1 protein (Mus musculus, UniProt P70218).
T3 construct: the CD3+ T cell population was isolated from spleenocytes of mice; endogenous in cells; host or cells: primary mouse splenic CD3+ (pan) T cells
T3 sequence (P70218 1-827): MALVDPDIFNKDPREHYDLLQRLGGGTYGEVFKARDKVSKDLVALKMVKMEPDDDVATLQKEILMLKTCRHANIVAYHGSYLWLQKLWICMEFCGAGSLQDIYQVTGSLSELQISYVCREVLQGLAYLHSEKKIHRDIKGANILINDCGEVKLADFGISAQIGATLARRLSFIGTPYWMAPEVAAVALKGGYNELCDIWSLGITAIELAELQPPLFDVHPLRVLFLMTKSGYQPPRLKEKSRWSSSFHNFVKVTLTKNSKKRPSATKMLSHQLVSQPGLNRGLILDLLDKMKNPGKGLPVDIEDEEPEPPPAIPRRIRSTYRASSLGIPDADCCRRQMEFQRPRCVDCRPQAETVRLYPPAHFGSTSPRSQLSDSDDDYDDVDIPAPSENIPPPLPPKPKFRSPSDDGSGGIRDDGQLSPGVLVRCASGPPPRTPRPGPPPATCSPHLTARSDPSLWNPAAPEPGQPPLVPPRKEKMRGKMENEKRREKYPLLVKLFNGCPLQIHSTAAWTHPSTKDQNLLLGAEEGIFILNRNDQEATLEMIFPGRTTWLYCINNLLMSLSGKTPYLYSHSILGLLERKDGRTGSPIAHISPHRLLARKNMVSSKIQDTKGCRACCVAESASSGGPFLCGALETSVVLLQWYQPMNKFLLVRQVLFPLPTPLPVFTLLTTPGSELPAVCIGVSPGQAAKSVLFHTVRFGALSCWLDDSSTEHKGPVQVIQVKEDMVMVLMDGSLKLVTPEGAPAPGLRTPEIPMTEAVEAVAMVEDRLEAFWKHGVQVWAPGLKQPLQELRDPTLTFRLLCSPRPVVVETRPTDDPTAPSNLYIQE
In words: HPK1 protein degradation in mouse pan T cell (western blot). The conditions noted are these: 18 h incubation. Format: cell-based. How it is done:
HPK1 protein degradation in mouse pan T cell: the CD3+ T cell population was isolated from spleenocytes of mice by using Pan T cell isolation kit from Miltenyi Biotec (130-095-130) following manufacture's instruction. The isolated T cells were then incubated with a variety of concentrations of compound. After incubation for 18 h, the cells were collected and lysed. The protein concentration was determined by BCA protein assay kit from Thermo (23227). The HPK1 protein level was determined by western blots, using anti-human HPK1 polyclonal antibody from CST (4472). Proteins were loaded into each well of the pre-casting gels and subjected to electrophoretic separation by SDS-PAGE. The protein resolved by SDS-PAGE were transferred to PVDF, blocked by 5% skim milk and probed with anti-human HPK1 antibody or β-actin antibody from CST (3700S), using following standard western blotting procedure.

As for `O=C1CCN(c2cccc3cc(N4CCC(OCCN5CCN(c6cccc(-c7cnc8[nH]cc(C9CC9)c8c7Cl)n6)C(=O)C5)CC4)ccc23)C(=O)N1` [Example 72], at HPK1 protein [1], the greatest degradation seen (Dmax) (in general, the largest share of the target that was removed) came out at 30%. In addition, the half-inhibitory concentration (IC50) (as a rule, the concentration that inhibits the measured activity by half) lay within 10 to 100 nM on HPK1 protein [2] and 300 to 3000 nM in the assay on HPK1 p-SLP-76.

With `CCc1c[nH]c2ncc(-c3cc(N4CCN(C(=O)CN(C)C5CCN(c6cc7c(cc6F)C(=O)N(C6CCC(=O)NC6=O)C7=O)CC5)CC4=O)ccc3F)c(Cl)c12` (stereo not drawn) [Example 44], the Dmax on HPK1 protein [1] came out at 30%; on HPK1 protein [3], 50%. On HPK1 protein [2], this molecule displayed a 50% inhibitory concentration (IC50) of 10 to 100 nM.

For `CC(OC1CCN(c2cc3c(cc2F)C(=O)N(C2CCC(=O)NC2=O)C3=O)CC1)C(=O)N1CCN(c2cccc(-c3cnc4[nH]cc(C5CC5)c4c3Cl)c2)C(=O)C1` (stereo not drawn) [Example 48], the Dmax amounted to 57% on HPK1 protein [1] and 95% at HPK1 protein [3]. The IC50 on HPK1 protein [2] fell in the range of 10 to 100 nM.

As for `CCc1c[nH]c2ncc(-c3cccc(N4CCN(CCCN5CCN(c6ccc7c(N8CCC(=O)NC8=O)cccc7c6)CC5)CC4=O)c3)c(Cl)c12` [Example 76, 1-(6-(4-(3-(4-(3-(4-chloro-3-ethyl-1H-pyrrolo[2,3-b]pyridin-5-yl)phenyl)-3-oxopiperazin-1-yl)propyl)piperazin-1-yl)naphthalen-1-yl)dihydropyrimidine-2,4 (1H,3H)-dione], the results for the greatest degradation seen (Dmax) at HPK1 protein [1] and on HPK1 protein [3] were 74% and 95%, respectively. Moreover, the IC50 against HPK1 protein [2] was in the range of 10 to 100 nM.

On to `CCc1c[nH]c2ncc(-c3cccc(N4CCN(S(=O)(=O)CCN5CCN(c6ccc7c(c6)C(=O)N(C6CCC(=O)NC6=O)C7=O)CC5)CC4=O)c3)c(Cl)c12` (stereo not drawn) [Example 100], for which the figures for the Dmax at HPK1 protein [1] and on HPK1 protein [3] were 93% and 90%, respectively. The molecule further registered a half-maximal inhibitory concentration (IC50) against HPK1 protein [2] of 10 to 100 nM.

Take `O=C1CCC(N2C(=O)c3cc(F)c(N4CCC(OCCCN5CCN(c6cccc(-c7cnc8[nH]cc(C9CC9)c8c7Cl)c6)C(=O)C5)CC4)cc3C2=O)C(=O)N1` (stereo not drawn) [Example 40, 5-(4-(3-(4-(3-(4-chloro-3-cyclopropyl-1H-pyrrolo[2,3-b]pyridin-5-yl)phenyl)-3-oxopiperazin-1-yl)propoxy)piperidin-1-yl)-2-(2,6-dioxopiperidin-3-yl)-6-fluoroisoindoline-1,3-dione]: the values for the maximal degradation (Dmax) at HPK1 protein [1] and on HPK1 protein [3] were 88% and 95%, respectively. Besides, the IC50 at HPK1 protein [2] lay in the range of 10 to 100 nM.

Take `O=C1CCC(N2Cc3cc(N4CCC(OCC(=O)N5CCN(c6cccc(-c7cnc8[nH]cc(C9CC9)c8c7Cl)c6)C(=O)C5)CC4)ccc3C2=O)C(=O)N1` (stereo not drawn) [Example 47]: the maximal degradation (Dmax) on HPK1 protein [1] worked out at 85%; at HPK1 protein [3], 95%. Further, on HPK1 protein [2], the 50% inhibitory concentration (IC50) was ≤ 10 nM.

Regarding `O=C1CCC(N2C(=O)c3ccc(N4CCC(OCC(=O)N5CCN(c6cccc(-c7cnc8[nH]cc(C9CC9)c8c7Cl)c6)C(=O)C5)CC4)cc3C2=O)C(=O)N1` (stereo not drawn) [Example 31], the greatest degradation seen (Dmax) worked out at 98% at HPK1 protein [1] and 95% on HPK1 protein [3]. Moreover, on HPK1 protein [2], the IC50 was in the range of 10 to 100 nM.

As to `CCc1c[nH]c2ncc(-c3cccc(N4CCN(CCCN5CC=C(c6ccc7c(N8CCC(=O)NC8=O)nn(C)c7c6)CC5)CC4=O)c3)c(Cl)c12` [Example 74, 1-(6-(1-(3-(4-(3-(4-chloro-3-ethyl-1H-pyrrolo[2,3-b]pyridin-5-yl)phenyl)-3-oxopiperazin-1-yl)propyl)-1,2,3,6-tetrahydropyridin-4-yl)-1-methyl-1H-indazol-3-yl)dihydropyrimidine-2,4 (1H,3H)-dione], the results for the Dmax at HPK1 protein [1] and on HPK1 protein [3] were 86% and 91%, respectively. For the same molecule, the 50% inhibitory concentration (IC50) against HPK1 protein [2] was ≤ 10 nM.

As for `O=C1CCC(N2C(=O)c3cc(F)c(N4CCN(C5CC(CN6CCN(c7cccc(-c8cnc9[nH]cc(C%10CC%10)c9c8Cl)c7)C(=O)C6)C5)CC4)cc3C2=O)C(=O)N1` (stereo not drawn) [Example 51, 5-(4-(3-((4-(3-(4-chloro-3-cyclopropyl-1H-pyrrolo[2,3-b]pyridin-5-yl)phenyl)-3-oxopiperazin-1-yl)methyl)cyclobutyl)piperazin-1-yl)-2-(2,6-dioxopiperidin-3-yl)-6-fluoroisoindoline-1,3-dione], the Dmax at HPK1 protein [1] came out at 96%; on HPK1 protein [3], 95%. The IC50 on HPK1 protein [2] lay within 10 to 100 nM.

As for `O=C1CCC(N2C(=O)c3cc(F)c(N4CCN(CCCN5CCN(c6cccc(-c7cnc8[nH]cc(CC(F)F)c8c7Cl)c6)C(=O)C5)CC4)cc3C2=O)C(=O)N1` (stereo not drawn) [Example 41], the Dmax at HPK1 protein [1] was 90%; on HPK1 protein [3] it was 95%. The half-inhibitory concentration (IC50) on HPK1 protein [2] is 10 to 100 nM.

With `O=C1CCC(N2C(=O)c3cc(F)c(N4CCC5(CC4)CN(CCN4CCN(c6cccc(-c7cnc8[nH]cc(C9CC9)c8c7Cl)c6)C(=O)C4)C5)cc3C2=O)C(=O)N1` (stereo not drawn) [Example 52], the values for the Dmax at HPK1 protein [1] and on HPK1 protein [3] were 31% and 95%, respectively. The molecule further showed a half-maximal inhibitory concentration (IC50) against HPK1 protein [2] of 10 to 100 nM.

`CCc1c[nH]c2ncc(-c3cccc(N4CCN(CC5CCN(c6cc7c(cc6F)C(=O)N(C6CCC(=O)NC6=O)C7=O)CC5)CC4=O)c3)c(Cl)c12` (stereo not drawn) [Example 38, 5-(4-((4-(3-(4-chloro-3-ethyl-1H-pyrrolo[2,3-b]pyridin-5-yl)phenyl)-3-oxopiperazin-1-yl)methyl)piperidin-1-yl)-2-(2,6-dioxopiperidin-3-yl)-6-fluoro isoindoline-1,3-dione]: the Dmax is 30% on HPK1 protein [1] and 90% on HPK1 protein [3]. The same molecule returned an IC50 against HPK1 protein [2] of 10 to 100 nM.

Turning to `O=C1CCC(N2C(=O)c3cc(F)c(N4CCC(CCN5CCN(c6cccc(-c7cnc8[nH]cc(CC(F)F)c8c7Cl)c6)C(=O)C5)CC4)cc3C2=O)C(=O)N1` (stereo not drawn) [Example 55], the Dmax at HPK1 protein [1] was found to be 55%; at HPK1 protein [3], 95%. On HPK1 protein [2], this molecule had an IC50 of 100 to 1000 nM.
